Source: publication PMC10251482, “Cyanomethyl Vinyl Ethers Against Naegleria fowleri” (ACS Chemical Neuroscience, 2023)
Read-outs that look alike come from different tables or passages of the source.

Experiments:
[1] = system: N. fowleri ATCC 30808 trophozoites; test: In vitro activity against trophozoite stage (alamarBlue), strain ATCC 30808; format: cell-based, Naegleria fowleri; details: for S.I. ATCC 30808 (selectivity index CC50/IC50): CC50 murine macrophages / IC50 N. fowleri ATCC 30808; for IC50 / IC90: Naegleria fowleri, ATCC30808, trophozoites, alamarBlue, 48 h incubation
[2] = system: N. fowleri ATCC 30215 trophozoites; test: In vitro activity against trophozoite stage (alamarBlue), strain ATCC 30215; format: cell-based; details: Naegleria fowleri, ATCC30215, 48 h incubation
[3] = In vitro cytotoxicity against murine macrophages (alamarBlue); format: cell-based; details: mouse
Procedure: (§1) For cytotoxicity assays, a murine cell line macrophage J774A.1 (ATCC TIB-67) was used, maintained in the Dulbecco’s modified Eagle’s medium (DMEM, w/v) supplemented with 10% (v/v) FBS and 10 μg/mL gentamicin (Sigma-Aldrich, Madrid, Spain), incubated at 37 °C in a 5% CO2 atmosphere.
(§2) In this assay, a murine macrophage cell line J774A.1 (ATCC TIB-67) was used. Serial dilutions of the compounds were added and, subsequently, the alamarBlue reagent as described in previous studies[51] was also placed. Once the plates were read on the EnSpire Multimode Plate Reader (PerkinElmer, Madrid, Spain), the data were analyzed to obtain the cytotoxic concentration 50 (CC50). This CC50, together with the activity, was used to obtain the selectivity index for N. fowleri.

[4] = system: N. fowleri ATCC 30808 trophozoites; test: ATP levels (CellTiter-Glo Luminescent Cell Viability Assay); format: cell-based, Naegleria fowleri; details: 24 h incubation with IC90
Procedure: To evaluate the mechanisms of action of the compounds at the cellular level, a series of commercial kits were used according to the manufacturer's instructions. To carry out the assays, the N. fowleri ATCC 30808 culture was previously incubated with the IC90 of the compounds evaluated for 24 h. Nontreated N. fowleri trophozoites were used as a negative control. […] Five images were processed each time at 40x and 100x objective lenses. In order to measure the amount of ATP produced, Cell […]-GLO Luminescent Cell Viability assay (Promega Biotech Ibérica, Madrid, Spain) was used. With this kit, it is possible to compare the ATP production of treated cells to that of nontreated (negative control). ATP levels were evaluated by luminescent analysis using an EnSpire Multimode Plate Reader (Perkin Elmer, Madrid, Spain) following incubation with IC90 of selected compounds at 37 °C for 24 h.

[5] = system: N. fowleri ATCC 30808 cysts; test: In vitro activity against cyst stage (alamarBlue); format: cell-based; details: Naegleria fowleri, ATCC30808, read 24 h after adding reagent, read-out: Cysticidal activity, N. fowleri ATCC 30808 IC50
[6] = system: N. fowleri ATCC 30808 trophozoites; format: cell-based, Naegleria fowleri; details: not told
Procedure: (§3) To evaluate the mechanisms of action of the compounds at the cellular level, a series of commercial kits were used according to the manufacturer’s instructions. To carry out the assays, the N. fowleri ATCC 30808 culture was previously incubated with the IC90 of the compounds evaluated for 24 h. Nontreated N. fowleri trophozoites were used as a negative control. […] Five images were processed each time at 40x and 100x objective lenses.
The permeability of the plasma membrane can be analyzed using a green fluorescent dye called SYTOX Green (Life Technologies, Madrid, Spain). After the amoebae are incubated for 24 h with the IC90 of cyanomethyl vinyl ethers, SYTOX Green was added to a final concentration of 1 μM and after 15 min of incubation, cells were observed using Discover Echo Inc. Revolution Microscope (Discover Echo, San Diego, CA). The plasma membrane of the damaged cells will become permeable, giving the reagent the ability to enter through it. When inside the cell, it binds to the DNA and increases its fluorescence more than 500-fold, emitting green fluorescence at 523 nm.

[7] = system: N. fowleri ATCC 30808 trophozoites; test: Oxidative stress / ROS detection (CellROX Deep Red); format: cell-based, Naegleria fowleri; details: 24 h incubation with IC90
Procedure: To evaluate the mechanisms of action of the compounds at the cellular level, a series of commercial kits were used according to the manufacturer’s instructions. To carry out the assays, the N. fowleri ATCC 30808 culture was previously incubated with the IC90 of the compounds evaluated for 24 h. Nontreated N. fowleri trophozoites were used as a negative control. […] Five images were processed each time at 40x and 100x objective lenses. In this assay, the oxidative stress produced in the pathogen by the generation of oxygen free radicals is evaluated. The CellROX Deep Red kit (Invitrogen, Thermo Fisher Scientific, Madrid, Spain) was used in amoebae incubated for 24 h with the IC90 of the compounds to be tested. The reagent was used at a final concentration of 5 μM and incubated for 30 min. After this time, the action of the reagent was observed using the Discover Echo Inc. Revolution Microscope (Discover Echo, San Diego, CA). As a result of the overproduction of reactive oxygen species (ROS), this dye has the ability to penetrate the cells and emit red fluorescence at a wavelength of ∼644/665 nm.

[8] = system: N. fowleri ATCC 30808 trophozoites; test: Mitochondrial membrane potential disruption (JC-1); format: cell-based, Naegleria fowleri; details: 24 h incubation with IC90
Procedure: as §3
To determine the potential of the mitochondrial membrane was use the dye JC-1 (1,1′,3,3′-tetraethyl-5,5′,6,6′-tetrachloroimidacarbocyanine iodide) (Cayman Chemicals Vitro SA, Madrid, España). Once the amoebae were incubated for 24 h with the IC90 of the active compounds, 10 μL of JC-1 was added. […] The reagent fluoresces at two different wavelengths depending on the membrane potential. Under normal conditions, the monomers bind together to form J-aggregates (dimers) emitting red fluorescence at 595 nm.

[9] = system: N. fowleri ATCC 30808 trophozoites; test: Actin filament depolymerization (phalloidin-TRITC); format: cell-based, Naegleria fowleri; details: 24 h incubation with IC90, Z-stack imaging
Procedure: To evaluate the mechanisms of action of the compounds at the cellular level, a series of commercial kits were used according to the manufacturer’s instructions. To carry out the assays, the N. fowleri ATCC 30808 culture was previously incubated with the IC90 of the compounds evaluated for 24 h. Nontreated N. fowleri trophozoites were used as a negative control. […] Five images were processed each time at 40x and 100x objective lenses. The disassembly of cytoskeleton in treated amoebae can be analyzed by the red fluorescence emitted by phalloidin-TRITC when it binds to actin filaments. On the other hand, DAPI reagent was used which, in turn, binds to DNA and emits blue fluorescence, as already described in Acanthamoeba genus.[52] In this assay, amoebae were incubated with the IC90 of compounds. A 24-h incubation period was followed by the fixation of the cells with formaldehyde on a coverslip and the addition of 0.1% Triton before the addition of phalloidin-tetramethylrhodamine B isothiocyanate (phalloidin-TRITC; Sigma-Aldrich, Madrid, Spain) for another 30-min period. Finally, after incubation, the sample was washed with PBS. Cells were examined by Z-stack with a 100x objective of the EVOS FL Cell Imaging System AMF4300 (Life Technologies, Madrid, Spain).

[10] = system: N. fowleri ATCC 30808 trophozoites; test: Chromatin condensation assay (Hoechst 33342/PI double stain); format: cell-based, Naegleria fowleri; details: 24 h incubation with IC90
Procedure: as §3
A double-stain apoptosis detection kit (Hoechst 33342/PI) (Life Technologies, Madrid, Spain) was used to evaluate DNA condensation based on the fluorescent detection for chromatin compaction in apoptotic cells, and the assay offers a rapid and convenient apoptosis detection. As soon as the amoebae have been incubated for 24 h with the active compound’s IC90, Hoechst and propidium iodide (PI) are added at a final concentration of 5 and 1 μg/mL, respectively. Fluorescence should be observed after 15 min of incubation in the dark. In apoptotic cells, Hoechst 33342, a dye for blue fluorescence, stains the condensed chromatin more intensely than that in normal cells. PI emits red fluorescence (maximum excitation and emission wavelengths when bound to DNA of 535 and 617 nm, respectively), which can only be emitted through dead cells.

[11] = system: murine macrophage cell line J774A.1 (ATCC TIB-67); test: In vitro cytotoxicity against murine macrophages (alamarBlue); format: cell-based; details: mouse
Procedure: as §1, §2

[12] = Murine macrophages J774.A1 CC50
[13] = J774A.1 macrophage cell line (ATCC TIB-67), alamarBlue, read-out: Murine macrophages J774.A1 CC50

Row | Structure (SMILES) | S.I. ATCC 30808 (selectivity index CC50/IC50) [1] | IC50 [1] | IC90 [1] | IC50 [2] | CC50 [3, 12] | CC50 [3, 13] | Decrease in ATP levels compared to the negative control [4] | IC50 [5] | Plasma membrane permeability (SYTOX Green fluorescence) [6] | Intracellular ROS generation (CellROX Deep Red fluorescence) [7] | Mitochondrial membrane potential (JC-1 fluorescence) [8] | Actin filaments (phalloidin-TRITC fluorescence) [9] | Chromatin condensation (Hoechst 33342 blue fluorescence) [10] | CC50 [11] | Propidium iodide red fluorescence [10]
1 | COC(=O)/C=C/OC(C#N)c1ccccc1 (centres unmarked) [QOET-51] | 14.23 | 49.9 ± 3.04 µM | 173 ± 17.2 µM | 68.5 ± 2.16 µM | 709 ± 67.1 µM | – | – | – | – | – | – | – | – | – | –
2 | C[C@@H]1[C@H](O)[C@@H](C)/C=C/C=C/C=C/C=C/C=C/C=C/C=C/[C@H](O[C@@H]2O[C@H](C)[C@@H](O)[C@H](N)[C@@H]2O)C[C@@H]2O[C@](O)(C[C@@H](O)C[C@@H](O)[C@H](O)CC[C@@H](O)C[C@@H](O)CC(=O)O[C@H]1C)C[C@H](O)[C@H]2C(=O)O [Amphotericin B, reference compound] | ≥1652.89 | 0.12 ± 0.03 µM | 0.35 ± 0.02 µM | 0.16 ± 0.02 µM | – | ≥ 200 µM | – | – | – | – | – | – | – | – | –
3 | COC(=O)/C=C/OC(C#N)c1cc(OC)c(OC)c(OC)c1 (centres unmarked) [QOET-67] | >6 | 48.3 ± 10.5 µM | 154 ± 15.3 µM | 121 ± 20.7 µM | > 325 µM | – | – | – | – | – | – | – | – | – | –
4 | COC(=O)/C=C/OC(C#N)c1ccc(C)cc1 (centres unmarked) [QOET-59] | >20 | 42.3 ± 6.44 µM | 77.2 ± 11.8 µM | 44.5 ± 0.48 µM | > 800 µM | – | 98.49% | 93.6 ± 17.5 µM | show green fluorescence | increase of the intracellular ROS generation | disruption in the mitochondrial membrane potential | bright red fluorescence region related to actin depolymerization | condensation was observed | > 865 µM | –
5 | COC(=O)/C=C\OC(C#N)c1ccc(C)c(C)c1 (centres unmarked) [QOET-72] | >7 | 47.7 ± 4.1 µM | 185 ± 7.05 µM | 50.1 ± 4.9 µM | > 408 µM | – | 90.25% | 130 ± 22.8 µM | show green fluorescence | increase of the intracellular ROS generation | disruption in the mitochondrial membrane potential | bright red fluorescence region related to actin depolymerization | condensation was observed | – | –
6 | COC(=O)/C=C/OC(C#N)c1ccc(F)cc1 (centres unmarked) [QOET-79] | >10 | 43.3 ± 5.69 µM | 119 ± 26 µM | 54.3 ± 7.4 µM | > 425 µM | – | – | – | – | – | – | – | – | – | –
7 | CCCCCCCCCCCCCCCCOP(=O)([O-])OCC[N+](C)(C)C [Miltefosine, miltefosine, reference compound] | 3.30 | 38.7 ± 4.23 µM | 89.5 ± 17.4 µM | 81.6 ± 7.23 µM | – | 128 ± 8.85 µM | – | – | – | – | – | – | – | – | –
8 | COC(=O)/C=C\OC(C#N)c1ccc(C(F)(F)F)cc1 (centres unmarked) [QOET-64] | >9 | 38.8 ± 2.13 µM | 83.4 ± 9.47 µM | 48.9 ± 0.81 µM | > 351 µM | – | – | – | – | – | – | – | – | – | –
9 | COC(=O)/C=C/OC(C#N)c1ccccc1C (centres unmarked) [QOET-77] | >10 | 39.2 ± 6.3 µM | 117 ± 26.1 µM | 42.7 ± 8.5 µM | > 394 µM | – | 86.28% | 102 ± 7.01 µM | show green fluorescence | increase of the intracellular ROS generation | disruption in the mitochondrial membrane potential | only low red fluorescence was detected | condensation was observed | – | late apoptosis phase
